# From ChEMBL document CHEMBL3507680, “University of Dundee, Gates Library screen for HepG2 cell viability”
# Experiment: Human HepG2 cell viability assay in 384 well format
# Type: toxicity, cell-based
# Design: dose 125 nL, time 70.5 hour; concentration not given beside the values
# Details: HepG2 cells, read-out: Inhibition
row,Compound,cytotoxicity at 70.5 h [%]
1,Cc1ccc(CN2CC[C@@H](NC(=O)c3cccnc3)[C@H](O)C2)o1,-13.3
2,CNC(=O)[C@@]12CCO[C@@H]1CCN(S(=O)(=O)c1cccc(C)c1)C2,-5.31
3,CCn1nc2c(cc1=O)CN(CC(=O)Nc1cc(C(C)C)no1)CC2,-8.8
4,Cc1cnc(N2C[C@@H]3[C@@H](C2)OCC(=O)N3C)nc1,-8.76
5,Cc1noc(CNC(=O)NCC2(C)CCCc3ccccc32)n1 (stereo unspecified),-8.6
6,c1cn(Cc2nnc(C3CCN(C4CCOCC4)CC3)n2C2CC2)cn1,-4.93
7,c1ccc(CN2CC[C@@H]3[C@@H](CO[C@@H]3CNc3ncccn3)C2)nc1,-7.29
8,COCC1c2nnn(CC3CC3)c2CCN1C(=O)c1cccn1C (stereo unspecified),9.68
9,Cc1cccc(CN2C[C@@H]3OCCN(C)[C@@H]3C2)n1,-11.9
10,O=C(NCc1cc(F)ccc1F)Nc1ccn(CC(F)F)n1,0.0811
11,COc1ccc2nnc(CCCC(=O)NCCc3ccccc3)n2n1,-9.61
12,c1cc(CN2CCCC2)cc(-n2ccnc2-c2ccncc2)c1,0.243
13,O=C(COc1cccc2c1CCC2=O)NCC(F)(F)F,-2.4
14,Cc1cc(N2CCOC(C(F)(F)F)C2)nc(-c2ccccc2O)n1 (stereo unspecified),-6.3
15,CC(Cn1cc(Br)cn1)C(=O)Nc1ccc(Br)cn1 (stereo unspecified),3.47
16,Cn1c(CCCNc2nccnc2C#N)nc2ccccc21,1.96
17,O=C(c1cn(-c2ccccc2)nn1)N1CCCC(n2cccn2)C1 (stereo unspecified),-3.98
18,CC(C)(C)n1ncc(NCC(O)c2ccccc2C(F)(F)F)c(Cl)c1=O (stereo unspecified),23.5
19,CSc1ccc(-c2noc(CN(CC(C)C)CC(C)C)n2)cc1,-12.7
20,CSc1ccc(C(=O)N2C[C@H]3CC[C@@H]2CN(Cc2ccccc2)C3)cc1,-0.304
21,CSc1nccc(NCc2cc3n(n2)CCCN(S(C)(=O)=O)C3)n1,-12.4

row,Compound,cytotoxicity at 70.5 h [%]
1,CCOCC1c2c(ncn2C)CCN1C(=O)c1ccoc1 (stereo unspecified),-17.6
2,CCn1ncc2c1C(COCC1CC1)CN(C(=O)c1ccncn1)C2 (stereo unspecified),-10.2
3,Cc1ccc(N2CCCC(NCC(=O)NC(C3CC3)C3CC3)C2)nn1 (stereo unspecified),-8.53
4,CCc1n[nH]c(C2CN(CCCS(C)(=O)=O)CCO2)n1 (stereo unspecified),32.1
5,CCN(CC)CCn1cnc(-c2ccccc2)c1-c1cnn(CC)c1,-10.7
6,Cc1nc(CNCC2CCCN2c2cccnn2)cs1 (stereo unspecified),2.56
7,Cc1ccc(F)c(C(=O)Nc2c(C(N)=O)n[nH]c2C)c1,-10.1
8,COCCn1nc(C(=O)N(C)Cc2cccnc2)ccc1=O,4.23
9,Cc1ccccc1CCNC(=O)C1CC(=O)N(CC(F)(F)F)C1 (stereo unspecified),26.6
10,O=C(Nc1cc(-c2cccnc2)no1)C1CCC1,-13
11,CC(C)n1nnnc1-c1ccc(NC(=O)N(C)CCN(C)C)cc1F,-7.88
12,O=C(CCc1ccsc1)NCC1CCN(Cc2cccs2)CC1,-4.26
13,Cc1ccc(C(C(=O)NCCN2CCCCCC2)N(C)C)cc1 (stereo unspecified),5.23
14,O=S(=O)(Nc1cn[nH]c1)c1ccc(Br)c(F)c1,-2.34
15,C[C@@H]1CN(S(=O)(=O)c2ccc(F)cc2F)C[C@]1(C)O,-1.56
16,Cc1ocnc1C(=O)N1CCN(Cc2ccccc2)[C@@H]2CS(=O)(=O)C[C@@H]21,-9.03
17,Cc1cc(N2CCN(Cc3ccccc3)CC(O)C2)cc(C)n1 (stereo unspecified),11.5
18,COC(=O)c1cccn1C1CCN(CC(=O)NC2CCCCC2)CC1,-8.68
19,CN(C)Cc1nnc(C(=O)N(C)Cc2ccc(C(F)(F)F)cc2)o1,-1.19
20,CC(C)CC1SCC(=O)Nc2c1cnn2C(C)C (stereo unspecified),-9.09
21,C[C@@H]1CN(Cc2ccncc2)C[C@]1(C)O,-18

row,Compound,cytotoxicity at 70.5 h [%]
1,CCOc1ccc(C#N)cc1NCC(=O)Nc1cc(F)ccc1F,6.71
2,COCCN(CCOC)C(=O)Nc1cc(C(F)(F)F)c[nH]c1=O,-15.1
3,CCn1cc(C(=O)NCc2csc(Br)c2)cn1,-11.6
4,CCn1c(C)nnc1CN(C)C1CCN(Cc2nnc(C3CC3)o2)C1 (stereo unspecified),2.54
5,CC(C)c1noc(CCC(=O)NC(C)c2nnc3n2CCCCC3)n1 (stereo unspecified),-6.86
6,Cc1ncoc1C(=O)N1C[C@@H]2COC[C@]2(c2nnc(C3CC3)o2)C1,-9.55
7,O=C(c1cn(CC(=O)N2CCCC2)c2ccccc12)C1CC1,-2.27
8,CCC(C)N(C)CCNC(=O)NCc1cccc(-n2cncn2)c1 (stereo unspecified),-2.22
9,O=C(c1cccnc1O)N1CCOC(c2ccc(Cl)cc2)C1 (stereo unspecified),-0.483
10,c1ccc(CN2CCCn3nnc(Cn4cccc4)c3C2)nc1,-7.02
11,Cn1c(CN2CCCCC2)nnc1C1CCN(c2nccc(N)n2)CC1,-7.78
12,CN1CCN(Cc2cnc3n2CCN(C(=O)c2cscn2)C3)CC1,-3
13,Cc1nc(NC(=O)NC2CC(=O)N(C)C2)nn1C(C)C (stereo unspecified),2.26
14,N#Cc1ccc(N2CCN(c3cnccn3)CC2)cc1C(F)(F)F,24.7
15,Cc1cc(Br)oc1C(=O)N1CCC(N(C)C)CC1,33.8
16,CCn1c(CC2CCN(C(=O)c3cc(C(C)C)nn3C)CC2)n[nH]c1=O,2.37
17,O=C1N(CC2CCCCC2)CCCC1(O)CN1CCc2[nH]ncc2C1 (stereo unspecified),-7.48
18,CCCC(C)NC(=O)c1ccc(-c2ccco2)[nH]c1=O (stereo unspecified),-2.99
19,O=C(NC1CCC1)[C@H]1C[C@H]2NCCO[C@@H]2C1,4.07
20,c1ncn(CC2CCCCN2Cc2noc(C3CC3)n2)n1 (stereo unspecified),11.3
21,CC(C)=CCN1C[C@H]2CC[C@@H]1CN(C(=O)c1ccc3[nH]cnc3c1)C2,3.14

row,Compound,cytotoxicity at 70.5 h [%]
1,CCC1c2ccsc2CCN1Cc1cc2c(cc1OC)OCCO2 (stereo unspecified),1.24
2,Cc1nn(C)c(C)c1CN(C)C(C(=O)O)c1ccc(F)cc1F (stereo unspecified),-1.85
3,COc1cccc(O[C@H]2CCN(c3nc(C)cc(C)n3)CC[C@@H]2O)c1,20.4
4,O=C(c1ccoc1)N1C[C@@H]2CN(c3ncccn3)C[C@@H]2C1,-4.89
5,Cn1cncc1C(=O)N1CCCC(c2ccn[nH]2)C1 (stereo unspecified),-16.9
6,CC(C(=O)N1CCCCCC1)N1CCN(c2nccs2)CC1 (stereo unspecified),19.7
7,CC(C)c1nc(C2CCCN2Cc2ccn(C)c(=O)c2)no1 (stereo unspecified),-0.609
8,CCOc1nnc(CN2CCN(CCOC)C(CC)C2)s1 (stereo unspecified),12.8
9,c1ccc(-c2nnc(CN3CCCC(Cn4cncn4)C3)o2)cc1 (stereo unspecified),-7.29
10,Cc1ccc(-c2cc(CN3CCOC(Cn4cncn4)C3)on2)cc1 (stereo unspecified),47.8
11,CC(C)c1nc(C2CCCN(C(=O)CCCn3cncn3)C2)no1 (stereo unspecified),-16
12,CCc1nc(CN(C)C2CCN(Cc3nc(C4CC4)no3)C2)no1 (stereo unspecified),31.8
13,NC1CCc2c(ccc(=O)n2Cc2ccncc2)C1 (stereo unspecified),2.44
14,CCCc1cc(C(=O)N(Cc2cccnc2)Cc2cccnc2)[nH]n1,-7.25
15,Cn1ncc2ccc(C3CCCN(Cc4cccs4)C3)nc21 (stereo unspecified),-0.364
16,O=c1[nH]c(NC2CCCC2)nc2nccc(-c3cccs3)c12,-4.19
17,O=S(=O)(Cc1ccc(F)cc1)NCCc1nnc2n1CCC2,-18.4
18,CN(Cc1cnn(C)c1)C(=O)CCS(=O)(=O)c1ccc2c(c1)OCCO2,-112
